Assays:
[1] = rat, in vivo, po, 100 mg/kg; cited from earlier work
[2] = target: T1, CYP2E1 (Rattus norvegicus, UniProt P05182); assay: biochemical; type: in vitro ADME
T1 construct: consisting of pooled HLMs (0.5 mg/ml) or RLMs (1 mg/ml) and an NADPH-regenerating system; from tissue; host or cells: rat liver microsomes prepared in house
Method: In this study, the rats were fasted overnight and killed by cervical dislocation before removal of the liver. The liver was excised, rinsed with ice-cold saline (0.9% NaCl w/v), weighed and homogenized in a […] Tris/KCl buffer (pH 7.4). Subsequently, the homogenate was centrifuged at 10,000 × g at 4 °C for 30 min. The supernatant was then centrifuged at 105,000 × g at 4 °C for 60 min. The pellet was reconstituted with […] Tris/KCl buffer (pH 7.4) and stored at −150 °C until use. The protein concentration of the liver microsomes was determined by a protein quantitative assay using bicinchoninic acid[22].
(§1) Microsomal incubation was carried out at 37 °C in a mixture of 200 μl in 0.05 M Tris/HCl buffer (pH 7.4) consisting of pooled HLMs (0.5 mg/ml) or RLMs (1 mg/ml) and an NADPH-regenerating system including MgCl2 (5 mM), G6P (10 mM), G6PDH (0.4 U/ml) and NADP (1 mM). Substrates were added into the incubation mixture and obtained the final concentrations (10 μM phenacetin for CYP1A2, 20 μM bupropion for CYP2B1/6, 20 μM tolbutamide for CYP2C9/11, 5 μM dextromethorphan for CYP2D1/6, 20 μM chlorzoxazone for CYP2E1 and 10 μM midazolam for CYP3A2/4), which were close to Km respectively. The proportion of organic solvent was not higher than 1% (v/v) in the incubation mixture. After pre-incubation for 5 min, the reaction was initiated by addition of NADP. Incubations were performed for 20 min, stopped by adding 200 μl ice-cold acetonitrile. And then 20 μl internal standard solution was added (3-acetamidophenol 2 μg/ml, chlorpropamide 2 μg/ml and mebendazole 2 μg/ml). The solution was mixed thoroughly for 3 min and centrifuged for 10 min at 16,000 × g at 4 °C. The supernatant (60 μl) was transferred to autosampler vials, and 2 μl was injected into LC-MS/MS system.
The IC50 (concentration of inhibitor to cause 50% inhibition of original enzyme activity) values were determined with the same incubation condition above. The specific concentrations of plumbagin were ranged from 0.1 μM to 50 μM. […]
All data were presented as mean ± SD. […] All results were analyzed in quadruplicate. […]

[3] = target: T2, CYP3A4 (Homo sapiens, UniProt P08684); assay: biochemical; type: in vitro ADME
T2 construct: consisting of pooled HLMs (0.5 mg/ml) or RLMs (1 mg/ml) and an NADPH-regenerating system; tissue Corning Gentest Corporation; host or cells: pooled human liver microsomes (n = 20)
T2 sequence (P08684 whole entry): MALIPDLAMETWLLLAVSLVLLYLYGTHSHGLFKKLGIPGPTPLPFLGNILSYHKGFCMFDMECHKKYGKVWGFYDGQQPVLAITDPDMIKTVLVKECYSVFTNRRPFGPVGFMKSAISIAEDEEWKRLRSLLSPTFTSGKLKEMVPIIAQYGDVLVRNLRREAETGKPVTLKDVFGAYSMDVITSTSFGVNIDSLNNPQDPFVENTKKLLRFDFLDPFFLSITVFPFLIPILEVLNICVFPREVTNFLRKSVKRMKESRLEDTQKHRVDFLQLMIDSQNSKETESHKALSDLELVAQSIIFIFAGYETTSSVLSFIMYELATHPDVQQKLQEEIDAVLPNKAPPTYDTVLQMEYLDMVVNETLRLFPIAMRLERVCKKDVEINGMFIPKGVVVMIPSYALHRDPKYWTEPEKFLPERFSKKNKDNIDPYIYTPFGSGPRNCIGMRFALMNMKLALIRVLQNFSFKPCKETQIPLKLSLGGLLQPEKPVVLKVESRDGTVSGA
Method: as §1
The IC50 (concentration of inhibitor to cause 50% inhibition of original enzyme activity) values were determined with the same incubation condition above. The specific concentrations of plumbagin were ranged from 0.1 μM to 50 μM. The IC50 values were calculated by plotting relative activities over the logarithm of plumbagin concentrations using GraphPad Prism 5.0 (GraphPad software Inc., CA, USA).
Cocktail probe substrates were then added and incubated for 20 min. Reactions were stopped with 200 μl ice-cold acetonitrile. The samples were treated according to the microsomal incubation method and then injected into LC-MS/MS for analysis.
Kinetic studies were performed for determining the types of inhibition on CYP by plumbagin. Pooled HLMs (0.5 mg/ml) or RLMs (1 mg/ml) with plumbagin (1 μM, 2 μM, 5 μM and 10 μM) were incubated in 0.05 M Tris/HCl buffer (pH 7.4) for 20 min at 37 °C. A series of concentrations for cocktail probe substrates were used: 2.5–20 μM phenacetin for CYP1A2; 5–40 μM bupropion for CYP2B1/6; 5–40 μM tolbutamide for CYP2C9/11; 1.25–10 μM dextromethorphan for CYP2D1/6; 5–40 μM chlorzoxazone for CYP2E1; 2.5–80 μM midazolam for CYP3A2; and 0.625–5 μM midazolam for CYP3A4. Enzyme kinetics as well as statistical analysis were performed using GraphPad Prism 5.0.
All data were presented as mean ± SD. The IC50 values were fitted by non-linear regression analysis using GraphPad Prism 5.0. The kinetic parameters were obtained by fitting velocity data to kinetic models (Michaelis-Menten) using GraphPad Prism 5.0. The Lineweaver-Burk Plot (the reciprocal of reaction velocities versus the reciprocal of substrates concentrations) was used to determine the quality of fit to a specific inhibition model. The inhibition constant (Ki) was obtained by a secondary plot using the slopes of the primary Lineweaver-Burk Plot (Km/Vmax versus inhibitor concentrations). αKi was obtained from a secondary plot using the y-intercepts of the Lineweaver-Burk plot (1/Vmax versus inhibitor concentrations). All results were analyzed in quadruplicate. One-way analysis of variance was used to estimate the significance of differences. There was statistical significance between control and test groups if p < 0.05.

T1 sequence (P05182 whole entry): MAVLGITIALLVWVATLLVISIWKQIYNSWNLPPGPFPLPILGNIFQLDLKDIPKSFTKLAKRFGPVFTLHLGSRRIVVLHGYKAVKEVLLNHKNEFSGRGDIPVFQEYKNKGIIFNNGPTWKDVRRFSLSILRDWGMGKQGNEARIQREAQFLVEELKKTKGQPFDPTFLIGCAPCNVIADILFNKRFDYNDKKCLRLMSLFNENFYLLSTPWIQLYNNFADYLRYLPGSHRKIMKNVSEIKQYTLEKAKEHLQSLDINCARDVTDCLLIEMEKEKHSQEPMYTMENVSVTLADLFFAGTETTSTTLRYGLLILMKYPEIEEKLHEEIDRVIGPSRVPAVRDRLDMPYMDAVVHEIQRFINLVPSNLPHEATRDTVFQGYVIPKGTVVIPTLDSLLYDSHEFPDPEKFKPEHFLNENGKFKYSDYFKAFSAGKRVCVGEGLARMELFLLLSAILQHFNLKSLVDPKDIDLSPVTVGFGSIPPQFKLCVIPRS

## CC1=CC(=O)c2c(O)cccc2C1=O [plumbagin, 5-hydroxy-2-methyl-1,4-naphthoquinone]
[1]
  Cmax: 1860 nM
  area under the curve (AUC) in the plasma: 271.9 µg·min/mL
  half-life (t1/2) in the plasma: 17.13 h
  peak concentration (Cmax) in the plasma: 350 ng/mL
[2]
  IC50: 3.72 µM
  Ki: 6.28 µM
  Type of inhibition: competitive
[3]
  IC50: 6.45 µM
  Ki: 0.88 µM
  Type of inhibition: mixed-type
[3]; human, 20 min, pH 7.4
  α: 1.54
  αKi: 0.57 µM
